The test deals with M. mycetomatis genome strain MM55. Nature of the test: CLSI M38-A2 based in vitro susceptibility screening (XTT or resazurin), growth at fixed concentration. The class given is cell-based, Madurella mycetomatis. Particulars: Madurella mycetomatis; for Percent fungal survival at 100 µM: read-out: Percentage survival at 100um, 100 uM A (second replicate column). A general note: Tetrazolium dyes change colour on reduction, which living cells bring about.

[1] abbreviates: mean, read-out: Percentage survival at 25um, 25 uM mean.
Where [2] appears, read: replicate A, read-out: Percentage survival at 25um, 25 um A.
The mark [3] stands for this setting: replicate B, read-out: Percentage survival at 25um, 25 uM B.
[4] abbreviates: replicate C, read-out: Percentage survival at 25um, 25 uM C.
The mark [5] stands for this setting: mean, read-out: Percentage survival at 100um, 100 uM mean.
Where [6] appears, read: replicate (first column), read-out: Percentage survival at 100um, 100 uM A.
[7] abbreviates: replicate (second column), read-out: Percentage survival at 100um, 100 uM A.
The mark [8] stands for this setting: replicate (third column), read-out: Percentage survival at 100um, 100 uM A.
Where [9] appears, read: mean of three replicates, read-out: Percentage survival at 25um, 25 uM mean.
The mark [10] stands for this setting: mean of three replicates, read-out: Percentage survival at 100um, 100 uM mean.
The mark [11] stands for this setting: replicate 1, read-out: Percentage survival at 100um, 100 uM A (first replicate column).
The mark [12] stands for this setting: replicate 3, read-out: Percentage survival at 100um, 100 uM A (third replicate column).
Setting [13] is: mean of replicates, MM55, read-out: Percentage survival at 25um, 25 uM mean.
Setting [14] is: replicate A, MM55, read-out: Percentage survival at 25um, 25 um A.
The mark [15] stands for this setting: replicate B, MM55, read-out: Percentage survival at 25um, 25 uM B.
Setting [16] is: replicate C, MM55, read-out: Percentage survival at 25um, 25 uM C.
[17] abbreviates: mean of replicates, MM55, read-out: Percentage survival at 100um, 100 uM mean.
[18] abbreviates: replicate 1, MM55, read-out: Percentage survival at 100um, 100 uM A.
Where [19] appears, read: replicate 2, MM55, read-out: Percentage survival at 100um, 100 uM A.
Where [20] appears, read: replicate 3, MM55, read-out: Percentage survival at 100um, 100 uM A.
The mark [21] stands for this setting: first replicate column, read-out: Percentage survival at 100um, 100 uM A.
Where [22] appears, read: second replicate column, read-out: Percentage survival at 100um, 100 uM A.
Setting [23] is: third replicate column, read-out: Percentage survival at 100um, 100 uM A.

Like-named read-outs stand apart in the source and are kept apart here.

For the compound `CCc1cc(O)c(Oc2cccnc2N)cc1F` [MMV1580854], the activity at 25 µM (mean of three, M. mycetomatis MM55, read-out: Percentage survival at 25um, 25 uM mean) amounted to 86.4%; the activity at 25 µM (replicate A, M. mycetomatis MM55, read-out: Percentage survival at 25um, 25 um A) is 97.5%; the activity at 25 µM (replicate B, M. mycetomatis MM55, read-out: Percentage survival at 25um, 25 uM B) stood at 88.8%; the activity at 25 µM (replicate C, M. mycetomatis MM55, read-out: Percentage survival at 25um, 25 uM C) worked out at 72.9%. In addition, the activity at 100 µM runs as follows: (mean of three, M. mycetomatis MM55, read-out: Percentage survival at 100um, 100 uM mean) 101%; (replicate 1, M. mycetomatis MM55, read-out: Percentage survival at 100um, 100 uM A (first replicate column)) 78.2%; (replicate 3, M. mycetomatis MM55, read-out: Percentage survival at 100um, 100 uM A (third replicate column)) 132%. The Percent fungal survival at 100 µM (replicate 2, M. mycetomatis MM55) worked out at 91.9%.
Turning to `Cc1cc(NS(=O)(=O)c2ccc(-c3ccc(F)cc3F)cc2)no1` [MMV1782217], the activity at 25 µM is 78.8% under setting [1], 76.3% under setting [2], 79.1% under setting [3] and 81.1% under setting [4]. The activity at 100 µM by setting is: under setting [5], 93.7%; under setting [6], 83.4%; under setting [7], 76.4%; under setting [8], 121%.
For the compound `O=C(O)c1sccc1S(=O)(=O)n1ccc2cc(Br)ccc21` [MMV1580855], the activity at 25 µM runs as follows: under setting [9], 98.9%; under setting [2], 101%; under setting [3], 108%; under setting [4], 88.3%. In addition, the activity at 100 µM by setting is: under setting [10], 97.9%; under setting [11], 128%; under setting [12], 79.1%. For the setting “replicate 2”, the Percent fungal survival at 100 µM worked out at 86.2%.
With `COc1ccc(C(C)(C)C)cc1NC(=O)C(=O)c1ccc(OCCN2CCOCC2)c2ccccc12` [MMV1782209], the activity at 25 µM worked out at 96.3% under setting [13], 102% under setting [14], 99.5% under setting [15] and 87.2% under setting [16]. The activity at 100 µM came out at 91.3% under setting [17], 102% under setting [18], 86% under setting [19] and 85.7% under setting [20].
Turning to `COc1ccc(-n2cnc3cc(NCc4ccco4)ccc32)cc1` [MMV617332], the activity at 25 µM runs as follows: under setting [9], 61.8%; under setting [2], 70.4%; under setting [3], 107%; under setting [4], 7.47%. For the same compound, the activity at 100 µM under setting [21] worked out at 18.3%, the activity at 100 µM under setting [10] stood at 7.71%, the activity at 100 µM under setting [22] stood at 3.66% and the activity at 100 µM under setting [23] amounted to 1.23%.
On to `Nc1nc2c(ncn2[C@@H]2O[C@H](CO)[C@@H](O)[C@H]2F)c(=O)[nH]1` [MMV1633677], for which the activity at 25 µM under setting [9] was 85.2%, the activity at 25 µM under setting [2] is 76.3%, the activity at 25 µM under setting [3] came out at 91.2% and the activity at 25 µM under setting [4] amounted to 88.1%. Also, the activity at 100 µM runs as follows: under setting [21], 85.8%; under setting [10], 83.6%; under setting [22], 80.2%; under setting [23], 84.7%.
Regarding `O=C(c1cc(O)nc2ccccc12)N1CCN(c2ccccc2)CC1` [MMV596723], the activity at 25 µM runs as follows: under setting [9], 81.5%; under setting [2], 85.3%; under setting [3], 92.8%; under setting [4], 66.3%. For the same compound, the activity at 100 µM was found to be 83.7% under setting [21], 79.5% under setting [10], 80.5% under setting [22] and 74.4% under setting [23].
Consider `O=C(O)c1cc(-c2ccccc2)nc2ccccc12` [MMV018362], for which the activity at 25 µM under setting [9] is 91.7%, the activity at 25 µM under setting [2] stood at 97.4%, the activity at 25 µM under setting [3] was determined as 94.7% and the activity at 25 µM under setting [4] amounted to 83%. Moreover, the activity at 100 µM by setting is: under setting [21], 91%; under setting [10], 87.9%; under setting [22], 79.7%; under setting [23], 93.1%.
With `N[C@@H]1CN(c2c(F)cc3c(=O)c(C(=O)O)cn([C@@H]4C[C@@H]4F)c3c2Cl)CC12CC2` [MMV1579850], the activity at 25 µM amounted to 85.6% under setting [9], 82.4% under setting [2], 85.7% under setting [3] and 88.6% under setting [4]. Besides, the activity at 100 µM runs as follows: under setting [10], 83.7%; under setting [11], 86.1%; under setting [12], 82%. Moreover, the Percent fungal survival at 100 µM (replicate 2) turned out to be 82.9%.
For `O=c1[nH]c(=O)n(Cc2cccc(Oc3ccccc3)c2)cc1Nc1ccccc1` [MMV1782107], the activity at 25 µM under setting [9] was 91.7%, the activity at 25 µM under setting [2] is 75.5%, the activity at 25 µM under setting [3] was 83.9% and the activity at 25 µM under setting [4] is 116%. Besides, the activity at 100 µM turned out to be 90.6% under setting [21], 71.8% under setting [10], 77.9% under setting [22] and 47.1% under setting [23].
Regarding `CC(C)(C)NC(=O)[C@@H]1CN(Cc2cnc3occc3c2)CCN1C[C@@H](O)C[C@@H](Cc1ccccc1)C(=O)N[C@H]1c2ccccc2C[C@H]1O` [MMV1782353], the activity at 25 µM runs as follows: under setting [13], 97.1%; under setting [14], 103%; under setting [15], 101%; under setting [16], 87.6%. Besides, the activity at 100 µM turned out to be 86.3% under setting [17], 97% under setting [18], 84.7% under setting [19] and 77.2% under setting [20].
For `Cc1nc(Nc2ccc(F)cc2)nc(N2CCc3ccccc3C2C)c1C` (centres unmarked) [MMV030787], the activity at 25 µM under setting [1] is 63.9%, the activity at 25 µM under setting [2] worked out at 74.6%, the activity at 25 µM under setting [3] is 56.2% and the activity at 25 µM under setting [4] is 61.1%. Besides, the activity at 100 µM is 67.5% under setting [5], 53.1% under setting [6], 63.5% under setting [7] and 86% under setting [8].
Turning to `Cc1ccc(N2CCC(CCOc3ccc(S(C)(=O)=O)cc3)CC2)nn1` [MMV1634394], the activity at 25 µM under setting [9] came to 86.9%, the activity at 25 µM under setting [2] was found to be 79.1%, the activity at 25 µM under setting [3] stood at 80.9% and the activity at 25 µM under setting [4] was 101%. The activity at 100 µM amounted to 52.8% under setting [21], 63.9% under setting [10], 75.2% under setting [22] and 63.7% under setting [23].
Turning to `CCC(CC)[C@H](NC(C)=O)[C@@H]1[C@H](O)[C@@H](C(=O)O)C[C@H]1NC(=N)N` [MMV1593511], the activity at 25 µM reads like this: under setting [9], 92.7%; under setting [2], 97.1%; under setting [3], 98.3%; under setting [4], 82.7%. Besides, the activity at 100 µM by setting is: under setting [10], 89.1%; under setting [11], 95.6%; under setting [12], 88.3%. Also, for the setting “replicate 2”, the Percent fungal survival at 100 µM was found to be 83.3%.
Regarding `CCCCCc1ccc(C(=O)NCCn2cc(CCCCCc3cnc(N)[nH]3)nn2)cc1` [MMV1580847], the activity at 25 µM was determined as 63.2% under setting [9], 58% under setting [2], 61.7% under setting [3] and 70% under setting [4]. Also, the activity at 100 µM is 64.8% under setting [10], 67% under setting [11] and 32.1% under setting [12]. Besides, the Percent fungal survival at 100 µM (replicate 2) was determined as 95.2%.
Take `Cc1c(CN(C)C(=O)/C=C/c2cnc3c(c2)C(C)(C)C(=O)N3)oc2ccccc12` [MMV1579788]: the activity at 25 µM is 75.8% (mean of replicates, read-out: Percentage survival at 25um, 25 uM mean); 69.6% under setting [2]; 89.2% under setting [3]; 68.5% under setting [4]. The activity at 100 µM amounted to 90.5% (mean of replicates, read-out: Percentage survival at 100um, 100 uM mean); 57.9% (replicate 1, read-out: Percentage survival at 100um, 100 uM A); 71.3% (replicate 2, read-out: Percentage survival at 100um, 100 uM A); 142% (replicate 3, read-out: Percentage survival at 100um, 100 uM A).

The values are drawn from PMC8815882, “Screening the pandemic response box identified benzimidazole carbamates, Olorofim and ravuconazole as promising drug candidates for the treatment of eumycetoma” (PLoS Neglected Tropical Diseases, 2022).
